# Target: human mGlu5a receptor (Homo sapiens (Human), UniProt P41594)
# Test: Intracellular Ca2+ mobilization assay (mGlu5 PAM)
# Format: cell-based
# Conditions: for EC50: HEK-293 cells stably transfected with human mGlu5a, L-glutamate added at EC20 after pre-incubation with test compound, read-out: EC50 (nM) mGlu5PAM; for Emax: maximal response in % of the maximal stimulatory effect obtained with saturating concentrations of L-glutamate, read-out: Eff. (%)
# Summary of the method: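 HEK-293 cells stably expressing human mGlu5a at low level were loaded with Fluo-4AM and preincubated 10–30 min at 37 °C with 11-point half-log compound dilutions. L-glutamate was then added at its daily-determined EC20 (typically around 80 μM). Peak fluorescence minus basal, normalized to maximal glutamate effect, was fitted to give EC50, Hill slope and maximal response.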
# Chain of human mGlu5a receptor (P41594 other isoform, or with tags, fused parts or gaps): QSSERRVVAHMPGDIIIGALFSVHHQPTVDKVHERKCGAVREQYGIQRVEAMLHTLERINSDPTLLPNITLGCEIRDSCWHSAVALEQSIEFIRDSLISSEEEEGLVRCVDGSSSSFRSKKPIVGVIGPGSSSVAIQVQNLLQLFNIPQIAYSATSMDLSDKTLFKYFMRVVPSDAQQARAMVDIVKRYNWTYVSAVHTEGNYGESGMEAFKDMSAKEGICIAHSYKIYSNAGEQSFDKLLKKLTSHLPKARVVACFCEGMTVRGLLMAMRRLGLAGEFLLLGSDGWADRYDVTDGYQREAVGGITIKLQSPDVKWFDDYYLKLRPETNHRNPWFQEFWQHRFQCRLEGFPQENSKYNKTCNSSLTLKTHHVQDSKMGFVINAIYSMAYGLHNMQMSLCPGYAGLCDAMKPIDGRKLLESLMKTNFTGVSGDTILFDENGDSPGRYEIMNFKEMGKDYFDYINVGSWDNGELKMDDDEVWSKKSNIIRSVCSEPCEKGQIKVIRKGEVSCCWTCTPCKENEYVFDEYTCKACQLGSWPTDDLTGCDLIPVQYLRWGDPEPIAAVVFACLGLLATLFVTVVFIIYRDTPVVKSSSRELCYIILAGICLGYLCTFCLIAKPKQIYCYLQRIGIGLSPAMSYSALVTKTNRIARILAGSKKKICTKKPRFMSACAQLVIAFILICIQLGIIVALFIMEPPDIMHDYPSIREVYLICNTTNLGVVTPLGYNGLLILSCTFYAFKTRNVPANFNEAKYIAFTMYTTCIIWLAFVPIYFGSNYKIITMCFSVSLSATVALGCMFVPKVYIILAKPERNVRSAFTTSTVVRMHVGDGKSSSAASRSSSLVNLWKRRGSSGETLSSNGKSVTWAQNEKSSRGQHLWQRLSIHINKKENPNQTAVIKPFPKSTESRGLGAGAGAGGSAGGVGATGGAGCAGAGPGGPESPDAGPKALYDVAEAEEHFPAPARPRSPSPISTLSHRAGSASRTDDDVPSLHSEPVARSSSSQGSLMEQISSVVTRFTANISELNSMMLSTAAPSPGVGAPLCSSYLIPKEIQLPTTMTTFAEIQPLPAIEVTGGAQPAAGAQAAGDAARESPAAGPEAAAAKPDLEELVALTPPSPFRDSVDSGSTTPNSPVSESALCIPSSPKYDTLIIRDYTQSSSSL
smiles,measurement,value
"CC(C)N1C(=O)N(c2ccc(C#Cc3ccccc3)cn2)C2CCCCC21 (stereo not drawn) [Example 101, (3aSR,7aRS)-(3aRS,7RS)-1-Isopropyl-3-(5-phenylethynyl-pyridin-2-yl)-octahydro-benzoimidazol-2-one]",EC50,39 nM
same,Emax,77%
"Cc1cc(C#Cc2cccc(F)c2)cnc1N1CC(C)(C)N(C)C1=O [Example 108, 1-[5-(3-Fluoro-phenylethynyl)-3-methyl-pyridin-2-yl]-3,4,4-trimethyl-imidazolidin-2-one]",EC50,102 nM
same,Emax,115%
CN1C(=O)N(c2ncc(C#Cc3ccc(F)cc3)cc2F)CC1(C)C [Example 110],EC50,96 nM
same,Emax,117%
CN1C(=O)N(c2ncc(C#Cc3cccc(F)c3)cc2F)CC1(C)C [Example 111],EC50,32 nM
same,Emax,107%
"CN1C(=O)N(c2ccc(C#Cc3ccc(F)cc3)cn2)CC12CC2 [Example 112, 6-[5-(4-Fluoro-phenylethynyl)-pyridin-2-yl]-4-methyl-4,6-diaza-spiro[2.4]heptan-5-one]",EC50,80 nM
same,Emax,89%
"CN1C(=O)N(c2ccc(C#Cc3cccc(F)c3)cn2)CC12CC2 [Example 113, 6-[5-(3-Fluoro-phenylethynyl)-pyridin-2-yl]-4-methyl-4,6-diaza-spiro[2.4]heptan-5-one]",EC50,51 nM
same,Emax,75%
"CC1(C)CC(=O)N(c2ncc(C#Cc3ccccc3)cn2)C1 [Example 115, 4,4-Dimethyl-1-(5-phenylethynyl-pyrimidin-2-yl)-pyrrolidin-2-one]",EC50,13 nM
same,Emax,109%
"CC1(C)CCC(=O)N(c2ncc(C#Cc3ccccc3)cn2)C1 [Example 116, 5,5-Dimethyl-1-(5-phenylethynyl-pyrimidin-2-yl)-piperidin-2-one]",EC50,41 nM
same,Emax,101%
"O=C1CC2(CCCC2)CN1c1ncc(C#Cc2ccccc2)cn1 [Example 117, 2-(5-Phenylethynyl-pyrimidin-2-yl)-2-aza-spiro[4.4]nonan-3-one]",EC50,44 nM
same,Emax,84%
"CC1(C)CC(=O)N(c2ncc(C#Cc3cccc(F)c3)cn2)C1 [Example 118, 1-[5-(3-Fluoro-phenylethynyl)-pyrimidin-2-yl]-4,4-dimethyl-pyrrolidin-2-one]",EC50,13 nM
same,Emax,78%
"CC1(C)CC(=O)N(c2ncc(C#Cc3cccc(Cl)c3)cn2)C1 [Example 119, 1-[5-(3-Chloro-phenylethynyl)-pyrimidin-2-yl]-4,4-dimethyl-pyrrolidin-2-one]",EC50,11 nM
same,Emax,26%
"CC1(C)CC(=O)N(c2ncc(C#Cc3ccc(F)cc3)cn2)C1 [Example 120, 1-[5-(4-Fluoro-phenylethynyl)-pyrimidin-2-yl]-4,4-dimethyl-pyrrolidin-2-one]",EC50,92 nM
same,Emax,81%
"CC1(C)CC(=O)N(c2ncc(C#Cc3cc(F)ccc3F)cn2)C1 [Example 121, 1-[5-(2,5-Difluoro-phenylethynyl)-pyrimidin-2-yl]-4,4-dimethyl-pyrrolidin-2-one]",EC50,41 nM
same,Emax,70%
"CN1C(=O)N(c2ncc(C#Cc3ccccc3)cn2)CC1(C)C [Example 122, 3,4,4-Trimethyl-1-(5-phenylethynyl-pyrimidin-2-yl)-imidazolidin-2-one]",EC50,11 nM
same,Emax,36%
"CN1C(=O)N(c2ncc(C#Cc3cccc(F)c3)cn2)CC1(C)C [Example 123, 1-[5-(3-Fluoro-phenylethynyl)-pyrimidin-2-yl]-3,4,4-trimethyl-imidazolidin-2-one]",EC50,18 nM
same,Emax,30%
"CN1C(=O)N(c2ncc(C#Cc3cc(F)ccc3F)cn2)CC1(C)C [Example 124, 1-[5-(2,5-Difluoro-phenylethynyl)-pyrimidin-2-yl]-3,4,4-trimethyl-imidazolidin-2-one]",EC50,7 nM
same,Emax,43%
"CN1C(=O)N(c2ncc(C#Cc3ccc(F)cc3)cn2)CC1(C)C [Example 125, 1-[5-(4-Fluoro-phenylethynyl)-pyrimidin-2-yl]-3,4,4-trimethyl-imidazolidin-2-one]",EC50,13 nM
same,Emax,44%
"CN1C(=O)N(c2ncc(C#Cc3ccc(F)c(F)c3)cn2)CC1(C)C [Example 126, 1-[5-(3,4-Difluoro-phenylethynyl)-pyrimidin-2-yl]-3,4,4-trimethyl-imidazolidin-2-one]",EC50,23 nM
same,Emax,36%
"CC1(C)CCN(c2ncc(C#Cc3ccccc3)cn2)C(=O)C1 [Example 134, 4,4-Dimethyl-1-(5-phenylethynyl-pyrimidin-2-yl)-piperidin-2-one]",EC50,42 nM
same,Emax,90%
"CC1(C)CCN(c2ncc(C#Cc3cccc(F)c3)cn2)C(=O)C1 [Example 135, 1-[5-(3-Fluoro-phenylethynyl)-pyrimidin-2-yl]-4,4-dimethyl-piperidin-2-one]",EC50,35 nM
same,Emax,47%
"CC1(C)CCN(c2ncc(C#Cc3cc(F)ccc3F)cn2)C(=O)C1 [Example 136, 1-[5-(2,5-Difluoro-phenylethynyl)-pyrimidin-2-yl]-4,4-dimethyl-piperidin-2-one]",EC50,31 nM
same,Emax,49%
"CN1C(=O)N(c2ncc(C#Cc3ccccc3)cn2)CCC1(C)C [Example 137, 3,4,4-Trimethyl-5′-phenylethynyl-3,4,5,6-tetrahydro-[1,2′]bipyrimidinyl-2-one]",EC50,66 nM
same,Emax,74%
"CN1C(=O)N(c2ncc(C#Cc3cccc(F)c3)cn2)CCC1(C)C [Example 138, 5′-(3-Fluoro-phenylethynyl)-3,4,4-trimethyl-3,4,5,6-tetrahydro-[1,2′]bipyrimidinyl-2-one]",EC50,60 nM
same,Emax,67%
"CN1C(=O)N(c2ncc(C#Cc3cc(F)ccc3F)cn2)CCC1(C)C [Example 139, 5′-(2,5-Difluoro-phenylethynyl)-3,4,4-trimethyl-3,4,5,6-tetrahydro-[1,2′]bipyrimidinyl-2-one]",EC50,57 nM
same,Emax,54%
"CC(C)N1C(=O)N(c2ncc(C#Cc3ccccc3)cn2)CC1(C)C [Example 140, 3-Isopropyl-4,4-dimethyl-1-(5-phenylethynyl-pyrimidin-2-yl)-imidazolidin-2-one]",EC50,28 nM
same,Emax,58%
"CC(C)N1C(=O)N(c2ncc(C#Cc3cccc(F)c3)cn2)CC1(C)C [Example 141, 1-[5-(3-Fluoro-phenylethynyl)-pyrimidin-2-yl]-3-isopropyl-4,4-dimethyl-imidazolidin-2-one]",EC50,28 nM
same,Emax,39%
"CC(C)N1C(=O)N(c2ncc(C#Cc3ccc(F)cc3)cn2)CC1(C)C [Example 142, 1-[5-(4-Fluoro-phenylethynyl)-pyrimidin-2-yl]-3-isopropyl-4,4-dimethyl-imidazolidin-2-one]",EC50,78 nM
same,Emax,74%
"CCN1C(=O)N(c2ncc(C#Cc3ccc(F)cc3)cn2)CC1(C)C [Example 143, 1-[5-(4-Fluoro-phenylethynyl)-pyrimidin-2-yl]-3-ethyl-4,4-dimethyl-imidazolidin-2-one]",EC50,47 nM
same,Emax,68%
"CCN1C(=O)N(c2ncc(C#Cc3cccc(F)c3)cn2)CC1(C)C [Example 144, 1-[5-(3-Fluoro-phenylethynyl)-pyrimidin-2-yl]-3-ethyl-4,4-dimethyl-imidazolidin-2-one]",EC50,31 nM
same,Emax,58%
"CN1C(=O)N(c2ncc(C#Cc3ccccc3)cn2)CC12CC2 [Example 147, 4-Methyl-6-(5-phenylethynyl-pyrimidin-2-yl)-4,6-diaza-spiro[2.4]heptan-5-one]",EC50,25 nM
same,Emax,36%
"CC1(C)CC(=O)N(c2ccc(C#Cc3ccccc3)nn2)C1 [Example 150, 4,4-Dimethyl-1-(6-(phenylethynyl)pyridazin-3-yl)pyrrolidin-2-one]",EC50,21 nM
same,Emax,113%
"CC1(C)CCN(c2ccc(C#Cc3ccccc3)nn2)C(=O)C1 [Example 151, 4,4-Dimethyl-1-(6-(phenylethynyl)pyridazin-3-yl)piperidin-2-one]",EC50,19 nM
same,Emax,130%
"CC1(C)CN(c2ccc(C#Cc3ccccc3)nn2)C(=O)O1 [Example 152, 5,5-Dimethyl-3-(6-(phenylethynyl)pyridazin-3-yl)oxazolidin-2-one]",EC50,15 nM
same,Emax,112%
"CC1(C)CCN(c2ccc(C#Cc3ccccc3)nn2)C(=O)O1 [Example 153, 6,6-Dimethyl-3-(6-(phenylethynyl)pyridazin-3-yl)-1,3-oxazinan-2-one]",EC50,14 nM
same,Emax,86%
"Cc1cccc(C#Cc2ccc(N3CC(C)(C)N(C)C3=O)nn2)c1 [Example 154, 3,4,4-Trimethyl-1-(6-(m-tolylethynyl)pyridazin-3-yl)imidazolidin-2-one]",EC50,61 nM
same,Emax,108%
"CN1C(=O)N(c2ccc(C#Cc3cccc(Cl)c3)nn2)CC1(C)C [Example 155, 1-(6-((3-Chlorophenyl)ethynyl)pyridazin-3-yl)-3,4,4-trimethylimidazolidin-2-one]",EC50,73 nM
same,Emax,95%
"CN1C(=O)N(c2cnc(C#Cc3ccccc3)cn2)CC1(C)C [Example 156, 3,4,4-Trimethyl-1-(5-(phenylethynyl)pyrazin-2-yl)imidazolidin-2-one]",EC50,24 nM
same,Emax,58%
"CN1C(=O)N(c2cnc(C#Cc3cccnc3)cn2)CC1(C)C [Example 157, 3,4,4-Trimethyl-1-(5-(pyridin-3-ylethynyl)pyrazin-2-yl)imidazolidin-2-one]",EC50,206 nM
same,Emax,34%
"CN1C(=O)N(c2cnc(C#Cc3cccc(F)c3)cn2)CC1(C)C [Example 158, 1-(5-((3-Fluorophenyl)ethynyl)pyrazin-2-yl)-3,4,4-trimethylimidazolidin-2-one]",EC50,46 nM
same,Emax,36%
"CN1C(=O)N(c2cnc(C#Cc3ccc(F)cc3)cn2)CC1(C)C [Example 159, 1-(5-((4-Fluorophenyl)ethynyl)pyrazin-2-yl)-3,4,4-trimethylimidazolidin-2-one]",EC50,49 nM
same,Emax,49%
